Results: PubChem BioAssay AID179 (DTP/NCI, 2004)
Active and inactive are the calls of the source.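 The calls were made as follows: active = compounds giving half or more protection of infected cells from virus-caused growth loss, again on retest; inactive = the rest.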

System: CEM cells HIV-1 protection, formazan growth assay
Test: NCI AIDS Antiviral Assay
Conditions: for IC50: measured here: growth of uninfected CEM cells
Experimental: The ability of compounds to protect human CEM cells from HIV-1 infection is measured as a screen for new compounds capable of inhibiting the HIV virus. Five concentrations of drug were tested on uninfected and infected cells and cell growth was measured using a soluble formazan assay. […] Compounds that provided at least 50% protection were retested. Compounds that provided at least 50% protection on retest were listed as moderately active. Compounds that reproducibly provided 100% protection were listed as confirmed active. […] Note that the inability to provide protection could be due to toxicity.

Structure (SMILES): C#CCOCn1cnc2c(=O)[nH]cnc21
- EC50: > 331 µM
- IC50: > 331 µM

Structure (SMILES): CC(=O)Oc1ccc(-c2cc3ccccc3oc2=O)cc1OC(C)=O
- EC50: > 200 µM
- IC50: 8.32 µM

Structure (SMILES): COc1ccc(C2=Nc3ccccc3SC(c3ccc(OC)cc3)C2)cc1 (stereo unspecified)
- EC50: > 47.9 µM
- IC50: 25.7 µM

Structure (SMILES): CC(=O)OCC1OC(NC(=S)Nc2nc(-c3ccccc3)cc(-c3cc(Cl)ccc3O)n2)C(OC(C)=O)C(OC(C)=O)C1OC(C)=O (stereo unspecified)
- EC50: > 200 µM
- IC50: 5.13 µM

Structure (SMILES): CCCNC(=S)/N=C/c1c(O)c2ccccc2[nH]c1=O
- EC50: > 200 µM
- IC50: > 200 µM

Structure (SMILES): Cc1cc(N(CCC#N)CCC#N)ccc1/C=C(\NC(=O)/C=C/c1ccccc1)C(=O)NN
- outcome: inactive

Structure (SMILES): N#C/C1=C(\C#N)CCC2(C#N)C3C=CC(O3)C2(C#N)CC1 (stereo unspecified)
- EC50: > 295 µM
- IC50: 34.7 µM

Structure (SMILES): CC1(C)CCCC2CC2CCC(C)(C)C1=O (stereo unspecified)
- EC50: > 200 µM
- IC50: 105 µM

Structure (SMILES): C=C(/C=N/N(C)C)CC1c2c(O)ccc3cccc(c23)N1S(=O)(=O)c1ccc(C)cc1 (stereo unspecified)
- EC50: > 10.7 µM
- IC50: > 10.7 µM

Structure (SMILES): COc1cc(C2c3cc4c(cc3OC(NN=C(C)C)C2C)OCO4)cc(OC)c1O (stereo unspecified)
- EC50: > 200 µM
- IC50: 5.5 µM

Structure (SMILES): Cc1cc(=O)oc2cc(OCc3nc4ccccc4c(=O)n3-c3ccccc3)ccc12
- EC50: > 43.7 µM
- IC50: > 43.7 µM

Structure (SMILES): COc1ccc(C2=C(OC(=O)N(C)C)c3cccn3-c3cc(Cl)ccc3S2)cc1
- EC50: > 100 µM
- IC50: 87.1 µM

Structure (SMILES): O=c1[nH]c(=O)n([C@@H]2C[C@H](CO)[C@H](O)C2)cc1/C=C/Br
- EC50: > 759 µM
- IC50: 275 µM

Structure (SMILES): CCCCCCCCCCCC(=O)c1c(O)c2ccccc2oc1=O
- EC50: > 200 µM
- IC50: 155 µM

Structure (SMILES): O=C(c1ccccc1)n1c2ccc(Br)cc2c2nc3ccccc3nc21
- EC50: > 50.1 µM
- IC50: > 50.1 µM

Structure (SMILES): O=[N+]([O-])c1c(F)c(F)c2c(c1F)N(CCCCCl)c1ccccc1S2
- EC50: > 200 µM
- IC50: 7.94 µM

Structure (SMILES): C1C2CC3C1C1C[S+]3CC21 (stereo unspecified)
- EC50: > 380 µM
- IC50: > 380 µM

Structure (SMILES): COc1ccccc1NC(=O)C1=C(C)NC(C)=C(C(=O)Nc2ccccc2OC)C1/C=C/c1ccccc1
- outcome: inactive

Structure (SMILES): CN1C2C=CC1c1c(C3=NC(C)(C)CO3)cccc12 (stereo unspecified)
- EC50: > 200 µM
- IC50: > 200 µM

Structure (SMILES): CCOC(=O)c1ccc(N2C(=O)c3cccc4cccc(c34)C2=O)c([N+](=O)[O-])c1
- EC50: > 100 µM
- IC50: 37.2 µM

Structure (SMILES): CCc1n[nH]c(=O)n1NC(=O)c1ccccc1C(=O)O
- EC50: > 200 µM
- IC50: > 200 µM

Structure (SMILES): Cc1cn(C2C=CC(O)CC2)c(=O)[nH]c1=O (stereo unspecified)
- EC50: > 589 µM
- IC50: > 589 µM

Structure (SMILES): CCN(CC)/[N+]([O-])=N/OCOC
- EC50: > 200 µM
- IC50: > 200 µM

Structure (SMILES): Clc1ccc(CN2CCCN(Cc3ccc(Cl)c(Cl)c3)S2)cc1Cl
- EC50: > 61.7 µM
- IC50: > 61.7 µM

Structure (SMILES): NS(=O)(=O)c1nnc(NC(=O)CCC(=O)O)s1
- EC50: > 200 µM
- IC50: > 200 µM

Structure (SMILES): COc1ccc2nc(NC(=O)C(=O)NNC(=O)c3ccncc3)sc2c1
- EC50: > 174 µM
- IC50: 16.2 µM

Structure (SMILES): CSSc1ccccc1
- EC50: > 20 µM
- IC50: 7.76 µM

Structure (SMILES): CC(=O)Nc1ccc(C(=O)N2N=C(C)/C(=C/c3ccc(O)cc3)C2=O)cc1
- EC50: > 37.2 µM
- IC50: > 37.2 µM

Structure (SMILES): [N-]=[N+]=NC1(c2ccccc2)C(=O)c2cccc3c2N(CCC3)C1=O (stereo unspecified)
- EC50: > 200 µM
- IC50: 141 µM

Structure (SMILES): Cc1nc2c(=O)n(C)c(=O)nc-2n(CCO)c1C
- EC50: > 100 µM
- IC50: 83.2 µM

Structure (SMILES): O=C(Nc1ccc(I)cc1)c1ccccc1[Se][Se]c1ccccc1C(=O)Nc1ccc(I)cc1
- EC50: > 4.68 µM
- IC50: > 4.68 µM

Structure (SMILES): O=C(O)/C(=C\c1cc2c(cc1[N+](=O)[O-])OCO2)c1cc2c(cc1Br)OCO2
- EC50: > 200 µM
- IC50: 110 µM

Structure (SMILES): O=S1[C@H](c2ccccc2)c2c(-c3ccccc3)sc(-c3ccccc3)c2[C@@H]1c1ccccc1 (stereo partly specified)
- outcome: inactive

Structure (SMILES): Cc1ccc2c(c1)C(=O)CC=C(C(=O)O)N2
- EC50: > 200 µM
- IC50: > 200 µM

Structure (SMILES): Cc1ccc(N2C(=O)CS/C2=C(\C#N)c2nc3ccccc3[nH]2)cc1
- EC50: > 200 µM
- IC50: > 200 µM

Structure (SMILES): O=c1c(Sc2c(SCSc3cnc4ccccc4c3Sc3c[nH]c4ccccc4c3=O)cnc3ccccc23)c[nH]c2ccccc12
- EC50: > 100 µM
- IC50: > 100 µM

Structure (SMILES): COS(=O)(=O)OC1(SC)C=C(c2ccccc2)SS1 (stereo unspecified)
- EC50: > 200 µM
- IC50: 107 µM

Structure (SMILES): Cc1c(/C=N/NC(=S)Nc2ccccc2Cl)c(=O)n(-c2ccccc2)n1C
- EC50: > 200 µM
- IC50: 26.9 µM

Structure (SMILES): COc1ccc(C[C@H]2COC(=O)[C@@H]2Cc2ccc(Br)cc2)cc1OC
- EC50: > 200 µM
- IC50: 24.5 µM

Structure (SMILES): BrC(=C(c1ccc(OC2CCCCO2)cc1)c1ccc(OC2CCCCO2)cc1)c1ccccc1 (stereo unspecified)
- EC50: 70.8 µM
- IC50: > 200 µM

Structure (SMILES): O=C1C2CSCC1CN(Cc1ccccc1)C2
- EC50: > 525 µM
- IC50: > 525 µM

Structure (SMILES): CCCNC(=O)N(CC(C)(C)C)S(=O)(=O)c1ccc(Cl)cc1
- outcome: inactive

Structure (SMILES): Cn1c(Cl)cn2c3nc4ccccc4nc3c(=O)c(C#N)c12
- outcome: inactive
